US20070078180A1, “Methods and compositions for stabilizing an antioxidant” (priority 2005, published 2007)

Legend:
[1] = Effect of UVB radiation on stability of CoQ10 in PBS buffer (HPLC); type: physicochemical
Experimental: (§1) HPLC Methods. To measure CoQ10 levels in tissue culture medium, an appropriate high performance liquid chromatography (“HPLC”) method had to be established.
(§2) For the instant examples, a reliable HPLC method was established for CoQ10 using an isochratic method with a mobile phase of 85% methanol and 15% hexane. CoQ10 was detected at 275 nm.
(§3) HPLC Analysis of CoQ10. The amount of CoQ10 remaining in degradation experiments below were determined by High Pressure Liquid Chromatography (HPLC). The column used was a Microsorb C18 reverse phase column (15 cm×0.46 cm), the mobile phase consisted of 85% methanol and 15% hexane at a flow rate of 1 ml/minute and CoQ10 was detected at […]. The instrument used was a HP 1090 gradient HPLC system with photodiode array detector and autosampler.
(§4) Methods and Materials. The following experiment involved examining the effect of ultraviolet radiation (“UVR”) on levels of CoQ10 in culture medium. More specifically, ultraviolet-B (“UVB,” which is ultraviolet radiation ranging from about 290 nm to about 320 nm) dose-response studies were conducted on various concentrations of CoQ10 placed in either PBS buffer or into culture media. Doses of UVB ranged from 50 mJ to 200 mJ. In the culture media, 10 μm of CoQ10 was placed in a fibroblast culture for 24 hours.

[2] = Effect of UVB radiation on stability of CoQ10 in culture with fibroblasts (HPLC); type: physicochemical; conditions: fibroblast culture, 10 μM CoQ10, 24 hours
Experimental: as §1, §2, §3, §4

MMP-1 [3] = assay: UV-induced MMP-1 in dermal fibroblasts (ELISA); type: cell-based, human; conditions: 10 micromolar, 50 mJ UV, 24 hours
Source text: (§5) Methods and Materials. The following experiment involved examining the effect of CoQ10 on UVR-induced inflammatory mediators in human dermal fibroblasts. That is, because skin aging is known to be accelerated by inflammatory cytokines produced in the skin by UVR, this experiment assessed the ability of CoQ10 to inhibit the production of the inflammatory mediators produced in human dermal fibroblasts in response to either UVB radiation or to stimulation by IL-1, a pro-inflammatory cytokine produced in keratinocytes by UVR.
(§6) The dose of UV for stimulating the production in fibroblasts of each of the inflammatory mediators—PGE-2, IL-6, IL-8, and the matrix metalloproteinase (“MMP-1”)—was 50 mJ.
(§7) The cells were isolated and cultured as follows. […]
(§8) For the experiments, cells were seeded into 12 well culture dishes in complete growth medium at a density of 10^5 cells/well and allowed to attach overnight. […] Cells were incubated for 24 hours at 37° C., at which time the media was removed for assay and the cells counted. […]

IL-6 = assay: UV-induced IL-6 in dermal fibroblasts (ELISA); type: cell-based, human; conditions: 10 micromolar, 24 hours
Source text: as §5, §6, §7, §8

PGE-2 [4] = assay: UV-induced PGE-2 in dermal fibroblasts (ELISA); type: cell-based, human; conditions: UVB doses of 75 mJ, 100 mJ and 125 mJ; 10 μM
Source text: as §5, with “UVR. […]” for “UVR.”
The cells were isolated and cultured as follows. The dermal fibroblasts were isolated from human neonatal foreskin and cultured in Dulbecco's modified eagle media with L-glutamine and 4.5 mM glucose and without sodium pyruvate (“DMEM”) (available from Fisher Scientific, Pittsburgh, Pa.) containing 5% horse serum (available from Hyclone, Logan, Utah), 5% fetal bovine serum (available from Hyclone), and penicillin/streptomycin (100 U/100 μg/ml). Cell cultures were grown at 37° C. in a humidified CO2 incubator (5% CO2). […]
as §8

PGE-2 [5] = assay: IL-1-induced PGE-2 in dermal fibroblasts; type: cell-based, human; conditions: 24 hours
Experimental: The cells were isolated and cultured as follows. The dermal fibroblasts were isolated from human neonatal foreskin and cultured in Dulbecco's modified eagle media with L-glutamine and 4.5 mM glucose and without sodium pyruvate (“DMEM”) (available from Fisher Scientific, Pittsburgh, Pa.) containing 5% horse serum (available from Hyclone, Logan, Utah), 5% fetal bovine serum (available from Hyclone), and penicillin/streptomycin (100 U/100 μg/ml). Cell cultures were grown at 37° C. in a humidified CO2 incubator (5% CO2). Cells were passaged prior to confluence by removing cells with a trypsin/EDTA solution, followed by centrifugation and re-seeding.
as §8, with “overnight. The medium was then replaced with PBS for irradiation. A bank of two commercially available FS20 lamps were used for irradiation of cells.” for “overnight.”
The impact of CoQ10, colorless carotenoids, and a combination of both on PGE-2 in fibroblasts stimulated with IL-1 was examined. […] All of the plates were then incubated for 24 hours and then the media was removed from culture and cells counted.

MMP-1 [6] = assay: IL-1-induced MMP-1 in dermal fibroblasts (ELISA); type: cell-based, human; conditions: Example 3; CoQ10 10 μM, 24 hours
[7] = Degradation by hydroxyl radicals from the Fenton reaction (HPLC); type: physicochemical; conditions: room temperature, one hour
Experimental: as §3
Methods and Materials. The following experiment examined the effect of the hydroxyl radical on CoQ10. The hydroxyl radical is a reactive oxygen species (“ROS”) produced in the human body. The radical is generated by the reaction of iron with hydrogen peroxide (commonly called the Fenton reaction).
For this experiment, CoQ10 was prepared in a solution of chloroform/ethanol (1:1) at a concentration of 10 micrograms/ml. The Fenton reaction was then initiated by the addition of hydrogen peroxide and iron (III) chloride and allowed to proceed at room temperature for one hour, at which time samples were injected on HPLC.

[8] = Oxidation of CoQ10 by sodium hypochlorite, with or without lycopene (HPLC); type: physicochemical
Experimental: as §3
Methods and Materials. The following experiment examined the effect of sodium hypochlorite on CoQ10.
For this experiment, CoQ10 was prepared in HPLC “mobil phase” (methanol:hexane) and incubated with different concentrations of sodium hypochlorite prepared in water/methanol. The reaction was allowed to proceed for up to 30 minutes, at which time samples were injected on HPLC.
The stock lycopene was 10 mg/ml in soybean oil. It was diluted into toluene and used in the reaction at 0.1% lycopene. To allow the CoQ10, hypochlorite aqueous solution and lycopene to react, a detergent was used to bring the polar and nonpolar phases together. The incubation lasted for 30 minutes.

[9] = Oxidation of CoQ10 by 0.03% hypochlorite, with lycopene or colorless carotenoids (HPLC); type: physicochemical; conditions: Example 7, 1.5 hours
Experimental: as §3
Methods and Materials. The following experiment was a comparison of the impact that colorless carotenoids or lycopene have on CoQ10 when CoQ10 is exposed to hypochlorite oxidation.
695 μg/ml of CoQ10 was prepared in chloroform/ethanol (1:1). The calculated amounts of phytoene and phytofluene used in the study was 0.0142% and 0.0012%, respectively. The calculated amount of lycopene was 2 mg/ml in chloroform. Four plates of cells were prepared and allowed to attach overnight as described above. CoQ10 was then added to each of the plates. Further, lycopene was added to one of the plates, and the carotenoids were added to another. Three plates (one of the plates containing only CoQ10 was treated as a control) were then incubated with 0.03% hypochlorite (“HOCL”) for 1.5 hours. Then the samples were removed and assayed by HPLC to determine CoQ10 levels.

[10] = Oxidation of CoQ10 by potassium hydroxide, with or without colorless carotenoids (HPLC); type: physicochemical; conditions: 600 μM CoQ10, 1 mM KOH, 30 minutes, room temperature
Experimental: as §3
Methods and Materials. The following experiment examined whether colorless carotenoids could protect CoQ10 from potassium hydroxide oxidation.
600 μM of CoQ10 was prepared in chloroform stock. 500 μg/ml of the colorless carotenoids was prepared in DMSO. The calculated amount of potassium hydroxide (“KOH”) was 1 mM. Three plates of cells were prepared and allowed to attach overnight as described above. CoQ10 was then added to each of the plates. Further, KOH was added to two of the plates (one was maintained as a control containing only CoQ10). Further, the carotenoids were added to one of the plates containing KOH. Reactions were performed in a total volume of 1 ml. The cells containing KOH were incubated for 30 minutes at room temperature with the KOH. Then the samples were removed and assayed by HPLC to determine CoQ10 levels.

[11] = Solubility of CoQ10 in solvents compatible with cultured cells; type: physicochemical
Source text: Because of the very poor solubility of CoQ10 in any solvent that is compatible with cultured cells, 10 μm of CoQ10 was the maximum final concentration that could be used in culture medium.

Which results are given for `COC1=C(OC)C(=O)C(C/C=C(\C)CC/C=C(\C)CC/C=C(\C)CC/C=C(\C)CC/C=C(\C)CC/C=C(\C)CC/C=C(\C)CC/C=C(\C)CC/C=C(\C)CCC=C(C)C)=C(C)C1=O` [CoQ10, coenzyme Q10]?
stability of CoQ10 to UVB ([1]; UVB doses 50 mJ to 200 mJ): exhibited stability; decrease in the concentration of CoQ10 ([1]; high UVB doses, within experimental error): < 10; amount of CoQ10 after UVB radiation [2]: generally unaffected; level of UVR-induced MMP1 (MMP-1 [3]): back to near control levels; level of IL-6 induced in UVR-treated fibroblasts (IL-6): markedly lowered; effect on levels of PGE-2 after UVB irradiation (PGE-2 [4]): only a small inhibitory effect; IL-1 induction of PGE-2 (PGE-2 [5]; Example 2, 10 micromolar, IL-1 100 picograms/ml): significant reduction; inhibition at 10 µM (PGE-2 [5]; Homo sapiens, Fibroblast, Example 3, CoQ10 10 μM, colorless carotenoid 15 micrograms/ml, read-out: inhibition of the IL-1 induction of PGE-2): 16%; blocking the IL-1 induction in MMP-1 (MMP-1 [6]): ineffective; abundance or structure after the Fenton reaction ([7]; 10 micrograms/ml in chloroform/ethanol (1:1)): did not cause a reduction; loss of CoQ10 caused by sodium hypochlorite ([8]; Example 5, methanol:hexane, up to 30 minutes): 50%; loss of CoQ10 caused by hypochlorite ([9]; 695 μg/ml CoQ10, 0.03% hypochlorite): 60%; loss of CoQ10 due to oxidation by potassium hydroxide [10]: 80%; solubility ([11]; any solvent compatible with cultured cells): very poor; maximum final concentration that could be used in culture medium ([11]; culture medium): 10 μm

For `CC(C)=CCC/C(C)=C/C=C/C(C)=C/C=C/C(C)=C/C=C/C=C(C)/C=C/C=C(C)/C=C/C=C(\C)CCC=C(C)C` [lycopene], which “reduction of amount by the Fenton reaction” value ([7]; hydrogen peroxide and iron (III) chloride) is on record?
The value was 50%.

What about the “oxidation of CoQ10 by hypochlorite in the presence of the carotenoid” value ([8]; Example 6, 0.1% lycopene, detergent, 30 minutes) of the same compound?
The value was “significantly reduced”.

And the “oxidation of CoQ10 by hypochlorite in the presence of the carotenoid” value ([9]; 0.03% hypochlorite, lycopene 2 mg/ml, or phytoene 0.0142% and phytofluene 0.0012%)?
Its value is “caused a reduction in oxidation”.
